Test results published in PMC5404377 (Bioorganic & medicinal chemistry letters, 2016).

Legend:
hMOR = hMOR (Homo sapiens, UniProt P35372); conditions: read-out: Ki (nM) MOR; literature value; ref [14]; cited from earlier work
hKOR = hKOR (Homo sapiens, UniProt P41145); conditions: read-out: Ki (nM) KOR; literature value; ref [14]; cited from earlier work
MOR = MOR (Rattus norvegicus, UniProt P33535); experiment: [35S]GTPγS assay, agonist efficacy at MOR; type: biochemical; conditions: for MOR functional profile: [35S]GTPγS; for Emax: read-out: MOR %Emax
DOR = DOR (Rattus norvegicus, UniProt P33533); experiment: [35S]GTPγS assay, agonist efficacy at DOR; type: biochemical; conditions: for agonist activity at DOR: [35S]GTPγS
Male Swiss-Webster mice [1] = experiment: Hot plate nociception test; type: in vivo; conditions: mouse
Male Swiss-Webster mice [2] = experiment: Tail-flick nociceptive test; type: in vivo; conditions: mouse

Sequence of DOR (P33533 whole entry): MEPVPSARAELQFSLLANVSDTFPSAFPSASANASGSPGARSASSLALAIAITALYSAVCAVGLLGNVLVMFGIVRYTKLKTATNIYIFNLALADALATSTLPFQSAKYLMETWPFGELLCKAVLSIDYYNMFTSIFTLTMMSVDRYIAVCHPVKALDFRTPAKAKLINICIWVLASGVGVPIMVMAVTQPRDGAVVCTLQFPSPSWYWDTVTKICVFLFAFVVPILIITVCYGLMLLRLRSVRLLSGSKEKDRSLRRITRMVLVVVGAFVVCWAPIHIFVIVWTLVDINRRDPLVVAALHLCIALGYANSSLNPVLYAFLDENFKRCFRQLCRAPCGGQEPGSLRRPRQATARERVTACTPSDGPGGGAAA
Sequence of MOR (P33535 whole entry): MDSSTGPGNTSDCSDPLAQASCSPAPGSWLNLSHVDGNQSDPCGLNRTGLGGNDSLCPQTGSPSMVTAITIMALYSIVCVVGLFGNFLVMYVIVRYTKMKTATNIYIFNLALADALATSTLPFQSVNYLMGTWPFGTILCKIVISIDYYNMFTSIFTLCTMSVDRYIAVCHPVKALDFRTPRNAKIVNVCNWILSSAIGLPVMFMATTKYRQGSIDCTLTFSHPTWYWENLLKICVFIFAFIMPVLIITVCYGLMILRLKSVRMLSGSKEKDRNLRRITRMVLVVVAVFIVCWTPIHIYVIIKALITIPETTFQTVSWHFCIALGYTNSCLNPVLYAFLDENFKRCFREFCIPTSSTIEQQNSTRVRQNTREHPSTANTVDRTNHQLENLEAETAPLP
Sequence of hMOR (P35372 whole entry): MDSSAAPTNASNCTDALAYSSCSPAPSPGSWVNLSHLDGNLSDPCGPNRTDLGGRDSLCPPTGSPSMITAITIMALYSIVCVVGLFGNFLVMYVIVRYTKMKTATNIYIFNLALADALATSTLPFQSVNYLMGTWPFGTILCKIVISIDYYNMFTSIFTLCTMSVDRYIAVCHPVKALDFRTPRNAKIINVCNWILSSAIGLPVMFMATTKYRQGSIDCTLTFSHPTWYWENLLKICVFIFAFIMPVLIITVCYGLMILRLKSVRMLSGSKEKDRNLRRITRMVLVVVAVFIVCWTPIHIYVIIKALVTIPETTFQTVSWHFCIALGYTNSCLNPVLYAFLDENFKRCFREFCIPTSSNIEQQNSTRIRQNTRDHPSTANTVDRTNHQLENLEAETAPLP
Sequence of hKOR (P41145 whole entry): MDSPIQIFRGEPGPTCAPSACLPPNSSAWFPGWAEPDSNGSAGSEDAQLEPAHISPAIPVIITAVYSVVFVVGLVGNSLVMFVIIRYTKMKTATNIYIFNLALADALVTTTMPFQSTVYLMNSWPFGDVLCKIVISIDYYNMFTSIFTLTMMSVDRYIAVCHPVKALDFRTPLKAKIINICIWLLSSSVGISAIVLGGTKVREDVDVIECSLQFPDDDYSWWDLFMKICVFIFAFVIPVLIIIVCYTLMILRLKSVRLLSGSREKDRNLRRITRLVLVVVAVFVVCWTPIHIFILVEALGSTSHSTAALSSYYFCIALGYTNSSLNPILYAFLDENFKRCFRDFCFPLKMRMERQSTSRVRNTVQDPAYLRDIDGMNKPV

Compound: O=C1/C(=C/c2ccccc2)C[C@@]2(O)[C@H]3Cc4ccc(O)c5c4[C@@]2(CCN3CC2CC2)[C@H]1O5 [BNTX, benzylidenenaltrexone]
- Ki (hMOR): 26 nM
- Ki (hKOR): 48 nM

Compound: CN1CC[C@]23c4c5ccc(O)c4O[C@H]2C(=O)/C(=C/c2ccccc2)C[C@@]3(O)[C@H]1C5 [Compound 6, 7-benzylideneoxymorphone]
- EC50 (MOR): 72 ± 11 nM
- MOR functional profile (MOR): partial agonists
- Emax (MOR): 39 ± 1.3%
- agonist activity at DOR (DOR): no significant agonist activity
- hot plate antinociception compared to saline control (Male Swiss-Webster mice [1]; 50 mg/kg s.c., at 30 min (p<0.05)): significantly greater antinociception
- hot plate antinociception compared to saline control (Male Swiss-Webster mice [1]; 60 mg/kg s.c., at 30 (p<0.01), 50 (p<0.001), 70 (p<0.05) min): significantly greater antinociception
- Emax, hot plate antinociception (Male Swiss-Webster mice [1]; s.c., increasing doses 20-60 mg/kg): approximately 40 % MPE
- tail-flick antinociception compared to saline control (Male Swiss-Webster mice [2]; 50 mg/kg s.c., at 70 min (p<0.01)): significantly greater antinociception
- tail-flick antinociception compared to saline control (Male Swiss-Webster mice [2]; 60 mg/kg s.c., at 30 (p<0.001), 50 (p<0.01), 70 (p<0.01) min): significantly greater antinociception
- time of peak antinociception effects, tail-flick (Male Swiss-Webster mice [2]; 60 mg/kg s.c., post-administration): 30 min

Compound: O=C1/C(=C/c2ccccc2)C[C@@]2(O)[C@H]3Cc4ccc(O)c5c4[C@@]2(CCN3CCc2ccccc2)[C@H]1O5 [Compound 7]
- MOR functional profile (MOR): partial agonists
- Emax (MOR): 52 ± 3.8%
- agonist activity at DOR (DOR): no significant agonist activity
- Emax (DOR; read-out: DOR %Emax): < 10%

Compound: O=C1/C(=C/c2ccccc2)C[C@@]2(O)[C@H]3Cc4ccc(O)c5c4[C@@]2(CCN3CCCc2ccccc2)[C@H]1O5 [Compound 8]
- Emax (MOR): < 10%
